Experiments:
HEK293 FlpIn T-Rex cells = assay: Tau protein abundance by western blot (tau:tubulin); assay type: cell-based; conditions: Fig 3G; for normalized tau:tubulin ratios: normalized to full-length tau
Method: (§1) Fig. 3 TauC3 Ser416 phosphorylation regulates CHIP-dependent tau homeostasis. A In vitro ubiquitination of tau proteoforms by CHIP. Samples were collected at the denoted timepoints, quenched in SDS-PAGE loading buffer, and analyzed by western blot. B Quantification of unmodified tau remaining following in vitro ubiquitination of varying tau proteoforms by CHIP. Unmodified tau remaining was analyzed by densitometry, normalized to 0-min time point, and curves were fit using one-phase exponential decay (n = 3 technical replicates). C Cartoon schematic depicting promoter architecture and varying C-terminal sequences for HEK293 FlpIn T-Rex cells expressing doxycycline inducible GFP-tau proteoforms. D Representative fluorescence micrographs for GFP-tau cells. Images show tau species associated with microtubules (green, false color), while nuclei are stained with Hoechst 33342 (blue, false color). Scale bar = 30 µm. Images are representative of three separate acquisitions. E Co-immunoprecipitation assay following IP of varying tau species from cells. Whole cell lysate (input) was used for loading controls, and co-immunoprecipitated CHIP was analyzed by western blot. Experiment was repeated in duplicate. F Representative western blot showing differing abundance of various tau proteoforms in HEK293 FlpIn T-Rex cells. Experiment was repeated in duplicate. G Quantification of tau protein abundance taken from three independent biological experiments. Tau:tubulin ratio was determined by densitometry and normalized to full-length tau. Error bars represent SD. Statistical significance was determined by one-way ANOVA with Tukey’s post hoc analysis. H Quantification of MAPT mRNA from three independent biological experiments. MAPT mRNA was normalized to GAPDH and shown relative to full-length tau. Error bars represent SD. Statistical significance was determined by one-way ANOVA with Tukey’s post hoc analysis.
Construction of the stable dox-inducible HEK 293 eGFP-tau reporter cell lines was performed as described. In brief, parent HEK 293 Flp-In T-REx cells were harvested by trypsinization, resuspended in electroporation buffer containing 5 µg eGFP-tau plasmid DNA and 45 µg pOG44 plasmid DNA. Cells were electroporated using program Q-001 on a Lonza 4D-Nucleofector. Electroporated cells were immediately diluted in 10% FBS-DMEM and cultured for 48 h to recover. Following recovery, cells were selected with 100 µg/mL hygromycin until single colonies arose. Colonies were subsequently picked and screened for dox-inducible expression of eGFP-tau by fluorescence microscopy (Echo Revolve) and western blotting.
Prepared samples were separated on precast 4–20% SDS-PAGE gradient gels (Bio-Rad) for 35 min at 200 V. Proteins were transferred to nitrocellulose membranes using a Trans-Blot Turbo Transfer System (Bio-Rad). Membranes were blocked in Odyssey TBS Blocking Buffer (Licor) for 1 h at room temperature and then incubated in primary antibody in 1X Tris-Buffer saline containing 0.05% Tween-20 (1X TBS-T), plus 5% non-fat dry milk powder, and 0.02% NaN3 overnight at 4 °C with rotation. The following day, membranes were washed 3 times in 1X TBS-T and then incubated in secondary antibody diluted 1:10,000 in Odyssey TBS Antibody Diluent (Licor) for 1 h at room temperature. Following incubation with secondary antibody, membranes were washed 3 times in 1X TBS-T and imaged on an Odyssey Fc Imaging System (Licor). Quantification was performed by densitometry analysis in ImageJ (NIH). Raw images, along with select quantifications, can be found in Fig. S6. […]

endogenous CHIP = assay: Co-immunoprecipitation of endogenous CHIP with GFP-tau proteoforms; assay type: cell-based; conditions: Fig 3E
Method: as §1
Cells were washed once in 1X Dulbecco’s Phosphate Buffered Saline (D-PBS) and lysed in ice cold Pierce Immunoprecipitation (IP) lysis buffer (25 mM Tris-HCl pH 7.4, 150 mM NaCl, 1 mM EDTA, 1% NP-40). Lysates were collected by scraping, transferred to 1.5 mL microcentrifuge tubes, and incubated on ice for 15 min. […] Relative protein concentrations were determined by bicinchoninic acid assay (Pierce), and samples were normalized to the lowest protein concentration. […]
For tau immunoprecipitations, an aliquot (30 µL) of Protein A/G PLUS-agarose (Santa Cruz Biotech) per condition was collected and washed twice in ice cold IP lysis buffer. […] Inputs and eluates were subsequently analyzed by SDS-PAGE followed by western blotting. Quantification was performed by densitometry analysis in ImageJ (NIH).

tau: full length (FL) 0N4R splice isoform of tau, unmodified; recombinant or expressed in cells
normalized tau:tubulin ratios (HEK293 FlpIn T-Rex cells; replicate 1): 107.457
normalized tau:tubulin ratios (HEK293 FlpIn T-Rex cells; replicate 2): 93.4819
normalized tau:tubulin ratios (HEK293 FlpIn T-Rex cells; replicate 3): 99.0612
raw tau:tubulin ratios (HEK293 FlpIn T-Rex cells; replicate 1): 1.039
raw tau:tubulin ratios (HEK293 FlpIn T-Rex cells; replicate 2): 0.9043
raw tau:tubulin ratios (HEK293 FlpIn T-Rex cells; replicate 3): 0.9582
CHIP/tau (endogenous CHIP; IntDen quantification, with induction): 1.597
Relative Binding (endogenous CHIP; IntDen quantification, with induction, relative to tauC3): 1.645
CHIP/Tau normalized to tauC3 (endogenous CHIP; second quantification): 0.04136
CHIP/Tau (endogenous CHIP; second quantification, CHIP over total tau (D-8)): 0.03219

From article PMC11393453, “Phosphorylation of tau at a single residue inhibits binding to the E3 ubiquitin ligase, CHIP” (Nature Communications, 2024)
